Data reported in patent US20220151935A1, “USE OF AMINO ACID BASED NUTRIENTS AND PHARMACEUTICAL COMPOSITION CONTAINING THE SAME” (priority 2018, published 2022).
Where two headings read alike, the source gives them in different places. Marks after values point to notes of the source that are not given here. Values belong to the compound of their own block, whether it stands above or below them. Peptide text beside a SMILES is read from it.

How the values were obtained:
[1] = pH of the drug composition; assay type: physicochemical; conditions: aqueous solution
breast cancer 4T1 cells = experiment: Tumor weight and tumor inhibition in BALB/c mice bearing breast cancer 4T1 cells; conditions: for Intratumoral injection Tumor inhibition rate / Intratumoral injection Tumor weight: Table 10, avg tumor volume 336 mm^3, 150 μl/mouse every 3 days x3, 5th day after last dose;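 on all read-outs here: subcutaneous grafts in the right axilla, tumors excised and weighed after euthanasia, inhibition rate derived from group mean tumor weight versus the negative control group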
[2] = tested on: human liver cancer cells (HepG2); experiment: Tumor weight and tumor inhibition in nude mice bearing HepG2; assay type: in vivo; conditions: for Intratumoral injection Tumor inhibition rate / Intratumoral injection Tumor weight / Tumor inhibition rate of intraperitoneal injection: 5th day after last dose
Protocol: (§1) One of the core characteristics of tumors is heterogeneity. […] The corresponding negative control was normal saline.
(§2) They were injected intraperitoneally and intratumorally.
The negative control group was given normal saline. The compositions of the study drug are as shown in the table below: 4 types and concentrations of amino acid based nutrient single drugs (X % amino acid based nutrients), 18 types and concentrations of ineffective absorption drugs (Y % ineffective absorption drugs), 24 compositions comprising various types and concentrations of amino acid based nutrients and ineffectively absorption drugs (X % amino acid based nutrients/Y % ineffectively absorption drugs).
The negative control was normal saline. The compositions of 16 study drugs, as shown in the table below, comprise: a 5-fluorouracil single drug of 4 varying concentrations (X % 5-fluorouracil), and an amino acid based nutrient with 5 varying concentrations (Y % amino acid based nutrient), 7 compositions consisting of 5-fluorouracil of varying concentrations and an amino acid based nutrient of varying concentrations (X % 5-fluorouracil/Y % amino acid based nutrient). […] The dose at each time was: 5-fluorouracil 50 mg/kg, glutathione ≤1 g/kg, and an injection volume was ≤150 μl/mouse.
The negative control was normal saline, the positive control was 1% 5-fluorouracil, and the study drug was 1% methylene blue/10% amino acid based nutrient composition (the type of the amino acid based nutrient is variable). The amino acid based nutrients in the compositions used in study groups 1-13 were: arginine, glycine, cysteine hydrochloride, valine, threonine, proline, histidine hydrochloride, phenylalanine, lysine, leucine, alanine, glutathione, serine, and the study drug used in the study group 14 was 1% methylene blue/5% arginine/5% glycine.

[3] = tested on: pancreatic cancer cells PANC-1; experiment: Tumor inhibition in nude mice bearing pancreatic cancer cells PANC-1; assay type: in vivo; conditions: for Tumor inhibition rate of intraperitoneal injection / Tumor inhibition rate of intratumoral injection: Table 3, avg tumor volume 105 mm^3, 100 μl/mouse every 3 days x3, next day after last dose; for Tumor inhibition rate: Table 4, avg tumor volume 136 mm^3, intratumoral every 3 days x3, ≤150 μl, next day
Protocol: as §2
After anatomy, the tumor weight was measured and the tumor inhibition rate was calculated.

[4] = tested on: human thyroid cancer cells (SW579); experiment: Tumor inhibition in nude mice bearing human thyroid cancer cells (SW579); conditions: Example 2; intratumoral 100 μl/mouse every 3 days x3; next day; avg tumor volume 103 mm^3
[5] = tested on: human nasopharynx cancer cells (CNE1); experiment: Tumor inhibition in nude mice bearing human nasopharynx cancer cells (CNE1); conditions: Example 2; intratumoral 100 μl/mouse every 3 days x3; next day; avg tumor volume 78 mm^3
[6] = tested on: human head and neck cancer cells (Fμda); experiment: Tumor inhibition in nude mice bearing human head and neck cancer cells (Fμda); assay type: in vivo; conditions: Example 2; intratumoral 100 μl/mouse every 3 days x3; next day; avg tumor volume 109 mm^3
Excerpt: as §1

[7] = tested on: human breast cancer cells (MDA-MB231); experiment: Tumor inhibition in nude mice bearing human breast cancer cells (MDA-MB231); conditions: Example 2; intratumoral 100 μl/mouse every 3 days x3; next day; avg tumor volume 71 mm^3
[8] = tested on: human stomach cancer cells (BGC823); experiment: Tumor inhibition in nude mice bearing human stomach cancer cells (BGC823); conditions: Example 2; intratumoral 100 μl/mouse every 3 days x3; next day; avg tumor volume 85 mm^3
[9] = tested on: human lung cancer cells (A549); experiment: Tumor inhibition in nude mice bearing human lung cancer cells (A549); conditions: Example 2; intratumoral 100 μl/mouse every 3 days x3; next day; avg tumor volume 83 mm^3
[10] = tested on: human prostate cancer cells (LNCaP/AR); experiment: Tumor inhibition in nude mice bearing human prostate cancer cells (LNCaP/AR); conditions: Example 2; intratumoral 100 μl/mouse every 3 days x3; next day; avg tumor volume 91 mm^3
[11] = tested on: human ovary cancer cells (PA1); experiment: Tumor inhibition in nude mice bearing human ovary cancer cells (PA1); conditions: Example 2; intratumoral 100 μl/mouse every 3 days x3; next day; avg tumor volume 104 mm^3
HepG2 = experiment: Intratumoral tissue destruction, histological observation of HepG2 tumors; conditions: Table 7; intratumoral injection, once, ≤130 μl/mouse; next day; scale 0 = blank control, 5 = 5% acetic acid
[12] = Saturated concentration of 5-fluorouracil; assay type: physicochemical; conditions: aqueous solution
[13] = tested on: pancreatic cancer cells PANC-1; conditions: once, 150 μl, next day, vs blank group
hyperthyroidism = experiment: Hyperthyroidism model in rats (levothyroxine); conditions: first experiment, 25th day after administration, RIA
[14] = Table 12, avg tumor volume 317 mm^3, intratumoral 150 μl/mouse every 3 days x3, 5th day
[15] = Table 14, avg tumor volume 325 mm^3, intratumoral 150 μl/mouse every 3 days x3, 5th day
[16] = Table 13, avg tumor volume 307 mm^3, intratumoral 150 μl/mouse every 3 days x3, 5th day
[17] = Example 2, intratumoral 100 μl/mouse every 3 days x3, next day, avg tumor volume 81 mm^3
[18] = Table 16, avg tumor volume 169 mm^3, intratumoral every 3 days x3, ≤150 μl/mouse, 5th day
[19] = Table 15, avg tumor volume 316 mm^3, intratumoral 150 μl/mouse every 3 days x3, 5th day
[20] = Table 11, avg tumor volume 164 mm^3, intratumoral every 3 days x3, ≤150 μl, fifth day after last dose
[21] = Table 6, avg tumor volume 153 mm^3, ≤120 μl/mouse every 3 days x3
[22] = Table 8, avg tumor volume 175 mm^3, ≤150 μl/mouse every 3 days x3
[23] = Table 17, avg tumor volume 317 mm^3, intratumoral 150 μl/mouse every 3 days x3, fifth day

Drug pH ([1]; Table 14): 11.8
SMILES: [Na+].[OH-] [1% NaOH, sodium hydroxide]
Intratumoral injection Tumor inhibition rate (breast cancer 4T1 cells): 41% | Intratumoral injection Tumor weight (breast cancer 4T1 cells): 0.76 ± 0.24 g | Tumor inhibition rate (breast cancer 4T1 cells; [14]): 41% | Tumor weight (x ± s) (breast cancer 4T1 cells; [14]): 1.39 g | Tumor inhibition rate (breast cancer 4T1 cells; [15]): 42% | Tumor weight (x ± s) (breast cancer 4T1 cells; [15]): 1.41 ± 0.23 g

SMILES: O=C([O-])O.[Na+] [2% sodium bicarbonate, sodium bicarbonate]
Drug pH ([1]; Table 13): 6.9 | Tumor inhibition rate (breast cancer 4T1 cells; [16]): 7% | Tumor weight (g) (x ± s) (breast cancer 4T1 cells; [16]): 2.10 ± 0.25 g

SMILES: O=C([O-])[O-].[Na+].[Na+] [2.8% sodium carbonate, sodium carbonate]
Drug pH ([1]; Table 13): 10.9 | Tumor inhibition rate (breast cancer 4T1 cells; [16]): 7% | Tumor weight (g) (x ± s) (breast cancer 4T1 cells; [16]): 2.10 ± 0.27 g

SMILES: Cl.N[C@@H](CCC(=O)O)C(=O)O [3% glutamic hydrochloride, L-glutamic hydrochloride]
Tumor inhibition rate [2, 17]: 62% | Tumor inhibition rate [2, 18]: (70%) | Tumor inhibition rate of intraperitoneal injection [3]: 68% | Tumor inhibition rate of intratumoral injection [3]: 5% | Tumor inhibition rate ([3]; hydrochloride): 69% | Tumor inhibition rate [4]: 63% | Tumor inhibition rate [5]: 68% | Tumor inhibition rate [6]: 58% | Tumor inhibition rate [7]: 61% | Tumor inhibition rate [8]: 57% | Tumor inhibition rate [9]: 57% | Tumor inhibition rate [10]: 59% | Tumor inhibition rate [11]: 61%

SMILES: O=C([O-])O.[Na+] [4% sodium bicarbonate, sodium bicarbonate]
Drug pH ([1]; Table 15): 6.9 | Tumor inhibition rate (breast cancer 4T1 cells; [19]): 23% | Tumor weight (x ± s) (breast cancer 4T1 cells; [19]): 1.68 ± 0.27 g

SMILES: CC(=O)O [5% acetic acid, acetic acid, reference compound]
Tumor inhibition rate [2, 20]: (71%) | Intratumoral tissue destruction (HepG2): 5

SMILES: O=C([O-])O.[Na+] [5% sodium bicarbonate, sodium bicarbonate]
Drug pH ([1]; Table 13): 6.9 | Tumor inhibition rate (breast cancer 4T1 cells; [16]): 21% | Tumor weight (g) (x ± s) (breast cancer 4T1 cells; [16]): 1.79 ± 0.24 g

saturated concentration (Canti) [12]: about 1.5%
SMILES: O=c1[nH]cc(F)c(=O)[nH]1 [5-fluorouracil]

SMILES: O=C([O-])[O-].[Na+].[Na+] [7% sodium carbonate, sodium carbonate]
Drug pH ([1]; Table 13): 10.8 | Tumor inhibition rate (breast cancer 4T1 cells; [16]): 20% | Tumor weight (g) (x ± s) (breast cancer 4T1 cells; [16]): 1.81 ± 0.21 g

SMILES: C[C@H](N)C(=O)N[C@@H](CCC(N)=O)C(=O)O [10% ALA-GLN, Alanyl-glutamine dipeptide] (H-Ala-Gln-OH)
Tumor inhibition rate [2, 17]: 56% | Tumor inhibition rate of intraperitoneal injection [3]: 53% | Tumor inhibition rate of intratumoral injection [3]: 2% | Tumor inhibition rate [4]: 59% | Tumor inhibition rate [5]: 63% | Tumor inhibition rate [6]: 51% | Tumor inhibition rate [7]: 57% | Tumor inhibition rate [8]: 51% | Tumor inhibition rate [9]: 52% | Tumor inhibition rate [10]: 61% | Tumor inhibition rate [11]: 62%

SMILES: N[C@@H](CCC(=O)N[C@@H](CS)C(=O)NCC(=O)O)C(=O)O [10% glutathione, Reduced glutathione]
Tumor inhibition rate [2, 17]: 61% | Intratumoral injection Tumor inhibition rate [2, 21]: 58% | Intratumoral injection Tumor weight [2, 21]: 0.97 ± 0.24 g | Tumor inhibition rate of intraperitoneal injection [2, 21]: 3% | Intratumoral injection Tumor inhibition rate [2, 22]: 59% | Intratumoral injection Tumor weight [2, 22]: 1.04 ± 0.23 g | Tumor inhibition rate of intraperitoneal injection [2, 22]: 1% | Tumor inhibition rate [2, 18]: (62%) | Tumor inhibition rate of intraperitoneal injection [3]: 51% | Tumor inhibition rate of intratumoral injection [3]: 3% | Tumor inhibition rate [3]: 57% | Tumor inhibition rate [4]: 61% | histological observation of the tumor ([13]; intraperitoneal injection): no obvious difference between group A and the blank group | histological observation of the tumor ([13]; intratumoral injection): obvious intratumoral tissue destruction | Tumor inhibition rate [5]: 61% | Tumor inhibition rate [6]: 53% | Tumor inhibition rate [7]: 64% | Tumor inhibition rate [8]: 59% | Intratumoral tissue destruction (HepG2): 1 | Tumor inhibition rate [9]: 59% | Tumor inhibition rate [10]: 65% | Tumor inhibition rate [11]: 67%

SMILES: O=C([O-])O.[Na+] [10% sodium bicarbonate, sodium bicarbonate]
Drug pH ([1]; Table 13): 6.8 | Tumor inhibition rate (breast cancer 4T1 cells; [16]): 30% | Tumor weight (g) (x ± s) (breast cancer 4T1 cells; [16]): 1.58 ± 0.22 g

SMILES: O=C([O-])[O-].[Na+].[Na+] [14% sodium carbonate, sodium carbonate]
Drug pH ([1]; Table 13): 10.8 | Tumor inhibition rate (breast cancer 4T1 cells; [16]): 35% | Tumor weight (g) (x ± s) (breast cancer 4T1 cells; [16]): 1.47 ± 0.24 g

Drug pH ([1]; Table 15): 2.5
SMILES: CC(=O)O [15% acetic acid, acetic acid]
Tumor inhibition rate (breast cancer 4T1 cells; [19]): 68% | Tumor weight (x ± s) (breast cancer 4T1 cells; [19]): 0.70 ± 0.18 g

SMILES: N=C(N)NCCC[C@H](N)C(=O)O [15% arginine, L-arginine]
Drug pH ([1]; Table 13): 11.0 | Intratumoral injection Tumor inhibition rate (breast cancer 4T1 cells): 28% | Intratumoral injection Tumor weight (breast cancer 4T1 cells): 0.92 ± 0.26 g | Tumor inhibition rate (breast cancer 4T1 cells; [16]): 23% | Tumor weight (g) (x ± s) (breast cancer 4T1 cells; [16]): 1.74 ± 0.28 g

Drug pH ([1]; Table 15): 6.8
SMILES: NCC(=O)O [15% glycine, Glycine]
Tumor inhibition rate (breast cancer 4T1 cells; [19]): 17% | Tumor weight (x ± s) (breast cancer 4T1 cells; [19]): 1.81 ± 0.26 g

SMILES: N=C(N)NCCC[C@H](N)C(=O)O [20% arginine, L-arginine]
Tumor inhibition rate [2, 17]: 63% | Intratumoral injection Tumor inhibition rate [2, 22]: 61% | Intratumoral injection Tumor weight [2, 22]: 0.99 ± 0.21 g | Tumor inhibition rate of intraperitoneal injection [2, 22]: 5% | Tumor inhibition rate [2, 20]: (60%) | Tumor inhibition rate [2, 18]: (61%)** | Drug pH ([1]; Table 14): 10.8 | Tumor inhibition rate of intraperitoneal injection [3]: 56% | Tumor inhibition rate of intratumoral injection [3]: 5% | Tumor inhibition rate [3]: 61% | Tumor inhibition rate [4]: 62% | Tumor inhibition rate [5]: 63% | Tumor inhibition rate [6]: 56% | Tumor inhibition rate [7]: 55% | Intratumoral injection Tumor inhibition rate (breast cancer 4T1 cells): 33% | Intratumoral injection Tumor weight (breast cancer 4T1 cells): 0.86 ± 0.23 g | Tumor inhibition rate (breast cancer 4T1 cells; [14]): 27% | Tumor weight (x ± s) (breast cancer 4T1 cells; [14]): 1.72 g | Tumor inhibition rate (breast cancer 4T1 cells; [15]): 28% | Tumor weight (x ± s) (breast cancer 4T1 cells; [15]): 1.75 ± 0.29 g | Tumor inhibition rate (breast cancer 4T1 cells; [23]): 34% | Tumor weight (breast cancer 4T1 cells; [23]): 1.03 ± 0.29 g | Tumor inhibition rate [8]: 52% | Tumor inhibition rate [9]: 53% | Tumor inhibition rate [10]: 55% | Tumor inhibition rate [11]: 56%

SMILES: Cn1cc[nH]c1=S [Thiamazole, methimazole]
serum T3 (hyperthyroidism; negative control 1.9±0.1, blank 0.8±0.1): 1.1±0.1 | serum T4 (hyperthyroidism; negative control 171.2±9.3, blank 39.6±3.1): 66.3±3.6
